The assay has as its target T1, human TRPA1 (Homo sapiens, UniProt O75762, K186N/R3C/R58T).
T1 construct: host or cells: HEK293 FlpIn
Briefly: High Throughput Calcium Imaging Assay (FLIPR, cinnamaldehyde-activated Ca2+ influx). The format is cell-based. Particulars: HEK293 FlpIn cells stably expressing human TRPA1; EC60 cinnamaldehyde; Fluo-4AM; read-out: TRPA1 hFLIPR IC50. From the text:
The assay was dependent on detecting the change in intracellular Ca2+ concentration following activation of the channel in cells stably expressing the TRPA1 channel. Activation of the TRPA1 channel was followed by Ca2+ influx. Ca2+ increase was quantified through the use of a fluorescent Ca2+ indicator that was loaded into the cells. Compounds which inhibited Ca2+ increase were considered “hits” warranting additional examination.
The HEK293 FlpIn cell line (Invitrogen) was stably transfected as per the manufacturers guidelines with a construct encoding a human TRPA1 protein with the amino acid sequence depicted in SEQ ID NO: 1. The resulting cell line was maintained in the growth medium recommended by the manufacturer and supplemented with 100 ug/mL Hygromycin B to promote the selection of cells stably expressing the TRPA1 channel. After growing to confluency, cells were plated at a density of 24,000 cells/well in 384 well Black/Clear Microtest plates (Falcon) in the recommended growth medium supplemented with hygromycin, and allowed to grow for 20-24 hours resulting in a ˜90% confluent monolayer of cells. Cells were then loaded with assay buffer containing the Ca2+ dye Fluo-4AM (Invitrogen) to a final concentration of 4 uM, and incubated for 60 minutes at room temperature in the dark. The assay buffer consisted of 138 mM NaCl, 5.33 mM KCl, 1.26 mM CaCl2, 0.49 mM MgCl2, 0.41 mM MgSO4 5.56 mM D-glucose, 0.44 mM KH2PO4, 0.34 mM Na2HPO4, 20 mM HEPES, 2.5 mM Probenecid, and 4% TR-40; pH 7.8. Following 1 hour dye loading, cells were assayed using the FLIPR TETRA (Molecular Devices) which permits excitation of the Fluo-4AM dye, and subsequent recording of emission spectra according to the manufacturer's guidelines. A total of 5 baseline readings were acquired prior to each reagent addition, after which, readings were acquired at a rate of 1 every 3 seconds for 195 seconds, and then 1 every 10 seconds for an additional 420 seconds. During the assay, reagents were added and mixed after each addition by the FLIPR TETRA pippetor. EC60 concentration of Cinnamaldehyde was determined before the screening assay, and used as the activating concentration henceforth. For the screening assay, the baseline reading was taken, followed by addition of 10 uL of a compound stock at six-times the final concentration, followed by 615 seconds of read time as previously described. Following baseline readings, 10 μl, of six-times final concentration Cinnamaldehyde was added to each well, achieving a final concentration of 10 uM compound, and on average, 12 uM Cinnamaldehyde (depending on the EC60 derived during that experiment). Following addition of Cinnamaldehyde, readings were taken for 615 seconds as previously described. Negative controls consisted of HEK293 FlpIn TRPA1 cells exposed to compound vehicle and then Cinnamaldehyde. […] “Hits” were identified as compounds which inhibited the fluorescence response in the presence of Cinnamaldehyde as compared to the negative and positive controls. IC50 values were determined for compounds defined as “hits” which reached fully inhibition. This cell-based fluorescence assay was used to determine Ca2+ influx through the channel in the presence of compound at the following concentrations: 10 uM, 3.33 uM, 1.11 uM, 0.37 uM, 0.12 uM, 0.041 uM, 0.014 uM, 0.0046 uM, 0.0015 uM, and 0.00051 uM.

T1 sequence (O75762 whole entry R3C/R58T/K186N): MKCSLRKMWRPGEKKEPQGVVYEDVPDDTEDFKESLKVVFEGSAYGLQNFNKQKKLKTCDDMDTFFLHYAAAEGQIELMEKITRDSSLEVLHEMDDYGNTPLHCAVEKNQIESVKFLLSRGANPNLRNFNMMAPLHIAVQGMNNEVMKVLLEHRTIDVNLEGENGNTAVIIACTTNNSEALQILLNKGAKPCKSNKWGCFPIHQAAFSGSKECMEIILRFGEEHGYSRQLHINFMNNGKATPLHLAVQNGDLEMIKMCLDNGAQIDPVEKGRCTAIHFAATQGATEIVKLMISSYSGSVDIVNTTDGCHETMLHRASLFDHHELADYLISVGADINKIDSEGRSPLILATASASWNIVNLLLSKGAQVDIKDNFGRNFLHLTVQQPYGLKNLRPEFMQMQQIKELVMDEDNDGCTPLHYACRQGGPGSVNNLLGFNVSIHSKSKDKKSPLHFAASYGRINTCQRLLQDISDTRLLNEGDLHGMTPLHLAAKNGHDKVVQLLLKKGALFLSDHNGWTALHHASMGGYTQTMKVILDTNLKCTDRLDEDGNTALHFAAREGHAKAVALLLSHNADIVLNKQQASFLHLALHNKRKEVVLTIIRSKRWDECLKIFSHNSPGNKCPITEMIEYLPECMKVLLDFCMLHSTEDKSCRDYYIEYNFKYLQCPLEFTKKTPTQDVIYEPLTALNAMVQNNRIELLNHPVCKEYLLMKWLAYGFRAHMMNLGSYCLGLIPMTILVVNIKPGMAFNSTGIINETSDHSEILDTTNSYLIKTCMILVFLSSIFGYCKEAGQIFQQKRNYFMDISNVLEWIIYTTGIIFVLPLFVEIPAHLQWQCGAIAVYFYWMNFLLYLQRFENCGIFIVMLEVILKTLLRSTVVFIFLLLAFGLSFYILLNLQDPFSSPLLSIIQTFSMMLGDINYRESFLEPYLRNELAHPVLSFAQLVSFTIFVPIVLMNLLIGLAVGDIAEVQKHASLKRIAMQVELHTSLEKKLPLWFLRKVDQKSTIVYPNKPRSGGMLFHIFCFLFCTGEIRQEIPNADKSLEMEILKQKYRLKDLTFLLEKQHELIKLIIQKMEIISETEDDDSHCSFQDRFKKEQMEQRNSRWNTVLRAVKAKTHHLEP

One may read the IC50 as the midpoint of a concentration-inhibition curve. Consider `COC[C@@H]1CCC(Nc2ccc(F)cc2)C2(O)CCCO[C@H]12` (stereo in doubt) [(4aR,5S)-5-[(4-fluorophenyl)amino]-8-(methoxymethyl)hexahydro-2H-chromen-4a(5H)-ol], for which the IC50 came out at 35 nM.

In the case of `O[C@]12CCCC[C@@H]1CCC[C@H]2Nc1ccccc1` [(4R,4aR,8aR)-4-(phenylamino)octahydronaphthalen-4a(2H)-ol], the IC50 was determined as 54 nM.

Turning to `O[C@]12CCCO[C@H]1CCC[C@H]2Nc1ccc(F)cc1` [(4aS,5R,8aS)-5-[(4-fluorophenyl)amino]hexahydro-2H-chromen-4a(5H)-ol], the IC50 worked out at 520 nM. For `O[C@]12CCCC[C@@H]1CCC[C@H]2Nc1ccc(F)cc1` [(4aR,8aR)-4-[(4-fluorophenyl)amino]octahydronaphthalen-4a(2H)-ol] the value was 19 nM; for `O[C@@]12CCCO[C@H]1CCC[C@@H]2Nc1ccc(F)cc1` (stereo in doubt) [(4aR,5S,8aS)-5-[(4-fluorophenyl)amino]hexahydro-2H-chromen-4a(5H)-ol], 850 nM.

Values taken from patent US8829196B2, “TRPA1 antagonists” (Merck Sharp & Dohme Corp., priority 2009, dated 2014).
